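Step 1: Grow cells in 96-well plates. Step 2: Expose to compound for 48 hours at 5 concentrations. Step 3: Interpolate endpoints linearly; if unreached, use highest concentration. TGI is the concentration that stops growth completely.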 Where a SMILES comes first, the peptide text is derived from it. The star is where a group is joined. Boc = CC(C)(C)OC(=O)*; OBn = c1ccc(CO*)cc1; Bn = c1ccc(C*)cc1
Key:
Assay in all cases: NCI tumour cell line growth inhibition, 48 h
[1] = tested on: UACC-257 melanoma
[2] = tested on: SK-MEL-5 melanoma
[3] = tested on: U251 CNS
[4] = tested on: HT29 colon
[5] = tested on: OVCAR-4 ovarian
[6] = tested on: A498 renal
[7] = tested on: MDA-MB-231 breast
[8] = tested on: SNB-75 CNS
[9] = tested on: LOX IMVI melanoma
[10] = tested on: CCRF-CEM leukemia

O=C1CCCc2ccc3c(c21)CC1(Cc2cc4c(cc2C1)CCCC4)C3
TGI [1]: 47.8 µM
TGI [2]: 26.2 µM
TGI [3]: 44.4 µM
TGI [4]: 50.9 µM
TGI [5]: 50.9 µM
TGI [6]: > 100 µM
TGI [7]: 38.2 µM
TGI [8]: 65.1 µM
TGI [9]: 28.5 µM
TGI [10]: 16 µM

CC(CCC(=O)O)(c1cc(Br)c(O)c(Br)c1)c1cc(Br)c(O)c(Br)c1
TGI [1]: > 100 µM
TGI [2]: 88.3 µM
TGI [3]: > 100 µM
TGI [4]: > 100 µM
TGI [5]: > 100 µM
TGI [6]: 87.7 µM
TGI [7]: > 100 µM
TGI [8]: > 100 µM
TGI [9]: > 100 µM
TGI [10]: > 100 µM

N.N.NCCCCN.O=C([O-])CCl.O=C([O-])CCl.O=C([O-])CCl.O=C([O-])CCl.[Pt+4].[Pt+4]
TGI [1]: > 50 µM
TGI [2]: > 50 µM
TGI [3]: > 50 µM
TGI [4]: > 50 µM
TGI [5]: > 50 µM
TGI [6]: > 50 µM
TGI [8]: > 50 µM
TGI [9]: > 50 µM
TGI [10]: > 50 µM

NC(=O)c1ncn(C2CCC(CP(=O)(O)O)C2)c1N (stereo not drawn)
TGI [1]: > 100 µM
TGI [2]: > 100 µM
TGI [3]: > 100 µM
TGI [4]: > 100 µM
TGI [5]: > 100 µM
TGI [7]: > 100 µM
TGI [8]: > 100 µM
TGI [9]: > 100 µM

CN(C)CCNc1ccccn1
TGI [1]: > 100 µM
TGI [2]: > 100 µM
TGI [3]: > 100 µM
TGI [4]: > 100 µM
TGI [5]: > 100 µM
TGI [6]: > 100 µM
TGI [7]: > 100 µM
TGI [9]: > 100 µM

C=CCn1c(-c2ccc(N=NNc3ccc(-c4n[nH]c(=S)n4CC=C)cc3)cc2)n[nH]c1=S
TGI [1]: > 100 µM
TGI [2]: 3.79 µM
TGI [3]: 17.5 µM
TGI [5]: 6.35 µM
TGI [6]: > 100 µM
TGI [7]: > 100 µM
TGI [8]: 10.8 µM
TGI [9]: > 100 µM
TGI [10]: > 100 µM

COC(CO[Si](C)(C)N[Si](C)(C)OCC(OC)c1ccccc1)c1ccccc1 (stereo not drawn)
TGI [1]: > 100 µM
TGI [2]: > 100 µM
TGI [3]: > 100 µM
TGI [5]: > 100 µM
TGI [6]: > 100 µM
TGI [8]: > 100 µM
TGI [9]: > 100 µM
TGI [10]: > 100 µM

O=C1N2CCN=C2c2ccccc2C1(O)c1ccccc1 (stereo not drawn)
TGI [1]: > 100 µM
TGI [2]: > 100 µM
TGI [3]: > 100 µM
TGI [4]: > 100 µM
TGI [5]: > 100 µM
TGI [6]: > 100 µM
TGI [7]: > 100 µM
TGI [8]: > 100 µM
TGI [9]: > 100 µM
TGI [10]: > 100 µM

Cc1cc2nc(N)n[n+]([O-])c2cc1C
TGI [1]: > 100 µM
TGI [2]: > 100 µM
TGI [3]: > 100 µM
TGI [4]: > 100 µM
TGI [6]: > 100 µM
TGI [7]: > 100 µM
TGI [9]: > 100 µM
TGI [10]: > 100 µM

CC(CC(C)[C@H]1CCC2[C@H]3C(CC[C@@]21C)[C@@]1(C)CCC(O)C[C@H]1C[C@@H]3O)C(=O)O (stereo partly drawn)
TGI [1]: > 100 µM
TGI [3]: > 100 µM
TGI [4]: > 100 µM
TGI [5]: > 100 µM
TGI [6]: > 100 µM
TGI [7]: > 100 µM
TGI [8]: > 100 µM
TGI [9]: > 100 µM
TGI [10]: > 100 µM

COC(=O)c1ccc2c(c1)CC1(C2)Cc2ccc3c(c2C1)CCC3 (stereo not drawn)
TGI [1]: 53.8 µM
TGI [2]: 33.3 µM
TGI [3]: > 100 µM
TGI [4]: 55.4 µM
TGI [5]: > 100 µM
TGI [7]: 22.1 µM
TGI [8]: > 100 µM
TGI [9]: 60.7 µM
TGI [10]: > 100 µM

O=C(/C=C/c1ccccc1O)CC(=O)/C=C/c1ccccc1O
TGI [1]: 18.7 µM
TGI [2]: 14.6 µM
TGI [3]: 13 µM
TGI [5]: > 88.1 µM
TGI [6]: 51.3 µM
TGI [8]: > 78.7 µM
TGI [9]: 6.45 µM
TGI [10]: > 26.2 µM

Cc1cc(CC(O)(C(F)(F)F)C(F)(F)F)cc(CC(O)(C(F)(F)F)C(F)(F)F)n1
TGI [1]: 8.65 µM
TGI [2]: 3.34 µM
TGI [3]: 11.9 µM
TGI [4]: 7.79 µM
TGI [5]: 12.6 µM
TGI [6]: 7.87 µM
TGI [7]: 6.84 µM
TGI [8]: 6.58 µM
TGI [9]: 5.79 µM
TGI [10]: 12 µM

Clc1ccc2nc3c(c(-c4ccccc4)nn3-c3ccccc3)c(-c3ccccc3)c2c1
TGI [2]: > 100 µM
TGI [3]: > 100 µM
TGI [4]: > 100 µM
TGI [5]: > 100 µM
TGI [7]: > 100 µM
TGI [8]: > 100 µM
TGI [9]: > 100 µM
TGI [10]: > 100 µM

CCNc1nc2ccccc2nc1NCC
TGI [1]: > 100 µM
TGI [2]: > 100 µM
TGI [3]: > 100 µM
TGI [4]: > 100 µM
TGI [6]: > 100 µM
TGI [7]: > 100 µM
TGI [8]: > 100 µM
TGI [9]: > 100 µM
TGI [10]: > 100 µM

CCOC(=O)C(NC(=O)Nc1ccccc1)(Nc1cccc(Cl)c1)C(F)(F)F (stereo not drawn)
TGI [1]: > 100 µM
TGI [2]: > 100 µM
TGI [3]: > 100 µM
TGI [4]: > 100 µM
TGI [6]: > 100 µM
TGI [7]: > 100 µM
TGI [8]: > 100 µM
TGI [9]: > 100 µM
TGI [10]: > 100 µM

COc1ccc(/C=N/N=C(N)N)c(C(=O)O)c1OC
TGI [1]: > 100 µM
TGI [2]: > 100 µM
TGI [3]: > 100 µM
TGI [4]: > 100 µM
TGI [5]: > 100 µM
TGI [6]: > 100 µM
TGI [8]: > 100 µM
TGI [10]: > 100 µM

O=C(NC12CC3CC(CC(C3)C1)C2)n1cnc2cncnc21
TGI [1]: > 100 µM
TGI [2]: 30.6 µM
TGI [3]: > 100 µM
TGI [4]: > 100 µM
TGI [6]: > 100 µM
TGI [7]: > 100 µM
TGI [8]: > 100 µM
TGI [9]: 92 µM
TGI [10]: > 100 µM

C=C1CN(C(=O)c2cc3cc(OC)c(OC)c(OC)c3[nH]2)c2cc([N+](=O)[O-])ccc21
TGI [1]: > 100 µM
TGI [2]: > 100 µM
TGI [3]: > 100 µM
TGI [4]: > 100 µM
TGI [5]: > 100 µM
TGI [6]: > 100 µM
TGI [7]: 88.5 µM
TGI [8]: > 100 µM
TGI [9]: > 100 µM

CCOC(=O)Cn1c(=O)c2cc(C)cc3c(Cl)nc4c(OC)c(OC)cc1c4c32
TGI [1]: > 100 µM
TGI [2]: > 100 µM
TGI [3]: > 100 µM
TGI [4]: > 100 µM
TGI [5]: > 100 µM
TGI [7]: > 100 µM
TGI [8]: > 100 µM
TGI [9]: > 100 µM
TGI [10]: > 100 µM

CN(C)c1ccc(C(=C2C=CC(=[N+](C)C)C=C2)c2c(O)c(S(=O)(=O)[O-])cc3cc(S(=O)(=O)O)ccc23)cc1
TGI [1]: > 100 µM
TGI [2]: > 100 µM
TGI [3]: > 100 µM
TGI [4]: > 100 µM
TGI [5]: > 100 µM
TGI [6]: > 100 µM
TGI [7]: > 100 µM
TGI [8]: > 100 µM
TGI [9]: > 100 µM

CC(C)CC(NC(=O)C(CCC(=O)OCc1ccccc1)NC(=O)OC(C)(C)C)C(=O)NC(COCc1ccccc1)C(=O)NC(Cc1ccccc1)C(=O)O (stereo not drawn) (Boc-E(OBn)LS(Bn)F-OH; configuration not given here)
TGI [1]: > 100 µM
TGI [2]: > 100 µM
TGI [3]: > 100 µM
TGI [4]: > 100 µM
TGI [6]: > 100 µM
TGI [7]: > 100 µM
TGI [8]: > 100 µM

Source: PubChem BioAssay (NCI)
